In US20170183306A1, “CYCLIC COMPOUNDS HAVING A 1,3 DIAMINO-FUNCTIONALITY FOR USE IN THE TREATMENT OF HIV INFECTION” (Universite Paris Descartes, priority 2014, published 2017):
Counter-ions that a name gives are not always drawn. Like-named read-outs stand apart in the source and are kept apart here.

Columns and labels:
Format in all cases: cell-based
HeLa-p4 cells = assay: Cell viability assay (MTS) on HeLa-p4 cells
Method: (§1) HeLa-p4 cells are HeLa CD4 LTR-LacZ wherein LacZ expression is induced by the trans-activating protein Tat of HIV, making possible the precise quantification of HIV-1 infectivity from a single replication cycle. HeLa-CD4 cells growing exponentially at a density of 1×10^4/mL were placed in 96-well plates and infected the following day with 1 ng of HIV p24 antigen in the presence of different concentrations of compounds. The titles for a single cycle of the viruses were determined 48 hours after infection by quantifying the beta-galactosidase activity in lysates P4 by colorimetric test (CPRG, Promega) based on the cleavage of chlorophenol red-beta-D-galactopyranoside (CPRG) by beta-galactosidase. A cell viability assay measuring the absorbance at […] using the yellow tetrazolium reagent MTS [[…]] (Promega) was carried out.
(§2) For the helap4 cells experiments, the efficacy of the compounds is determined in comparison with control cells containing wild type NL4-3 virus alone (i.e. without any added compound) and is expressed as percentage of control. Then, the viral replication was increased for several compounds at the 50 and 100 μM concentrations with an absence of cytotoxic effects at the same concentrations (MTS test) (table 1).

[1] = test system: wild type NL4-3 virus (HIV-1) in HeLa-p4 cells; assay: HeLa-p4 single-cycle HIV-1 infectivity, beta-galactosidase CPRG test; details: 48 hours after infection, control = NL4-3 virus alone; for activity at 50 µM / activity at 100 µM / activity at 200 µM: Human immunodeficiency virus 1, NL43, HeLaP4; for activity at 50 µM: read-out: Hela-p4 CPRG 50 μM; for activity at 100 µM: read-out: Hela-p4 CPRG 100 μM
Method: as §1, §2

J-Lat cells = assay: J-Lat cells, percentage of GFP-positive cells by cytometry; details: 24 h, compound alone
Method: The J-Lat were grown in RPMI 1640 medium (Gibco-BRL) supplemented with 10% fetal bovine serum, 50 U/ml of penicillin, […] of streptomycin at 37 uC in a humidified 95% air/5% CO2 atmosphere. The cells were plated at 5.105 cells in a 96 well-plate. TNF ? was purchased from Immunosource. SAHA (suberoylanilide hydroxamic acid), prostratin (12-deoxyphorbol-13-acetate) and vorinostat were obtained from Sigma-Aldrich. The J-Lat cells were treated for 24 h with the different compounds alone. The cells were washed twice in PBS, re-suspended in PBS containing 4% paraformaldehyde and fixed for 30 min. Cells were next washed and re-suspended in PBS. The percentage of GFP-positive cells was measured with a LSRFortessa cytometer (Becton-Dickinson) using FACSDiva Version 6.1.3 according to the manufacturer's instructions.
The results for the J-Lat cells experiments are expressed as a percentage of the living fluorescent cells. In this model, some slight increase of viral production measured by fluorescence are quantified (table 1).

Row | Compound | Hela-p4 MTS 50 μM (HeLa-p4 cells) | Hela-p4 MTS 100 μM (HeLa-p4 cells) | Hela-p4 CPRG 50 μM ([1]; 50 μM) | Hela-p4 CPRG 100 μM ([1]; 100 μM) | J-lat 50 μM (J-Lat cells) | J-lat 100 μM (J-Lat cells) | Hela-p4 MTS 50 μM (HeLa-p4 cells; 50 μM, cell viability) | Hela-p4 MTS 100 μM (HeLa-p4 cells; 100 μM, cell viability) | Hela-p4 MTS 200 μM (HeLa-p4 cells; cell viability) | activity at 50 µM ([1]; 50 μM) [%] | activity at 100 µM ([1]; 100 μM) [%] | activity at 200 µM [1] [%]
1 | 1-(3,5-diaminopiperidin-1-yl)-2-(3-methoxyphenyl)ethanone [ECO02-030-C] | 109 | 107 | 139 percentage of control | 166 percentage of control | 0.5 percentage of the living fluorescent cells | 0.1 percentage of the living fluorescent cells | – | – | – | – | – | –
2 | COc1cccc(CCN2C[C@H](NC(C)=O)C[C@H](NC(C)=O)C2)c1 [ECO02-072-C, N,N′-(1-(3-methoxyphenethyl)piperidine-3,5-diyl)diacetamide] | – | – | – | – | 2.1 percentage of the living fluorescent cells | – | 111 | 98 | 84 | 107 | 167 | 242
3 | N[C@@H]1C[C@H](N)CN(Cc2cccc3cnccc23)C1 [ECO02-068-C, 1-(isoquinolin-5-ylmethyl)piperidine-3,5-diamine trihydrochloride] | – | – | – | – | 0.4 percentage of the living fluorescent cells | – | 85 | 83 | – | 105 | 137 | –
4 | N[C@@H]1C[C@H](N)CN(c2ccc3c(c2)OCO3)C1 [ECO01-042-C] | – | – | – | – | 0.2 percentage of the living fluorescent cells | 0.4 percentage of the living fluorescent cells | 85 | 60 | – | 146 | 104 | –
5 | Cc1cccc(CCN2C[C@H](N)C[C@H](N)C2)c1 [ECO01-030-C, 1-(3-methylphenethyl)piperidine-3,5-diamine] | – | – | – | – | 0.1 percentage of the living fluorescent cells | 0 percentage of the living fluorescent cells | 84 | 82 | – | 125 | 103 | –
6 | CS(=O)(=O)c1ccc(CCN2C[C@H](N)C[C@H](N)C2)cc1 [ECO01-039-C, 1-(4-(methylsulfonyl)phenethyl)piperidine-3,5-diamine] | – | – | – | – | 0.1 percentage of the living fluorescent cells | 0.1 percentage of the living fluorescent cells | 95 | 108 | – | 164 | 168 | –
7 | COc1cc(N2C[C@H](N)C[C@H](N)C2)cc(OC)c1OC [AB-116, (3S,5R)-1-(3,4,5-trimethoxyphenyl)piperidine-3,5-diamine] | – | – | – | – | 0 percentage of the living fluorescent cells | 0.5 percentage of the living fluorescent cells | 96 | 97 | 86 | 135 | 172 | 248
8 | COc1cccc(CCN2C[C@H](N)C[C@H](N)C2)c1 [ECO01-026-C2, 1-(3-methoxyphenethyl)piperidine-3,5-diamine] | – | – | – | – | 3.3 percentage of the living fluorescent cells | – | 106 | 98 | 72 | 116 | 169 | 234
9 | COc1ccc(CCN2C[C@H](N3C[C@H](N)C[C@H](N)C3)C[C@H](N3C[C@H](N)C[C@H](N)C3)C2)cc1OC [AB-103, (3S,3′R,3″S,5R,5′S,5″R)-1′-(3,4-dimethoxyphenethyl)-[1,3′:5′,1″-terpiperidine]-3,3″,5,5″-tetraamine] | – | – | – | – | 0.2 percentage of the living fluorescent cells | 0.4 percentage of the living fluorescent cells | 83 | 84 | – | 125 | 143 | –
10 | CC(C)(C)OC(=O)N[C@@H]1C[C@H](NC(=O)OC(C)(C)C)CN(Cc2ccco2)C1 [ECO02-058-C, di-tert-butyl (1-(furan-2-ylmethyl)piperidine-3,5-diyl)dicarbamate] | – | – | – | – | 1.4 percentage of the living fluorescent cells | – | 105 | 88 | 87 | 110 | 159 | 194
11 | N[C@@H]1C[C@H](N)CN(S(=O)(=O)c2ccccc2)C1 [ECO03-001-B, 1-(phenylsulfonyl)piperidine-3,5-diamine] | – | – | – | – | 0.6 percentage of the living fluorescent cells | – | 97 | 104 | 109 | 118 | 170 | 360
12 | CC(C)N1C[C@H](N)C[C@H](N)C1 [AB542, 1-isopropylpiperidine-3,5-diamine] | – | – | – | – | 0.1 percentage of the living fluorescent cells | 0.7 percentage of the living fluorescent cells | 100 | 99 | – | 113 | 106 | –
13 | CC(O)c1ccc(C(=O)NC(CCCCN)C(=O)N2C[C@H](N)C[C@H](N)C2)cc1 (some centres unmarked) [AB289-1, N-(6-amino-1-(3,5-diaminopiperidin-1-yl)-1-oxohexan-2-yl)-4-(1-hydroxyethyl)benzamide] | – | – | – | – | 0 percentage of the living fluorescent cells | 0.8 percentage of the living fluorescent cells | 103 | 100 | 74 | 157 | 236 | 294
14 | N[C@@H]1C[C@H](N)CN(C2Cc3ccccc3C2)C1 [ECO01-041-C, 1-(2,3-dihydro-1H-inden-2-yl)piperidine-3,5-diamine] | – | – | – | – | 1.0 percentage of the living fluorescent cells | 0.1 percentage of the living fluorescent cells | 98 | 84 | – | 114 | 131 | –
15 | N[C@@H]1C[C@H](N)CN(c2ccc(NC(=O)c3ccccc3)cc2)C1 [ECO03-002-C, N-(4-(3,5-diaminopiperidin-1-yl)phenyl)benzamide] | – | – | – | – | 0.5 percentage of the living fluorescent cells | – | 115 | 116 | 74 | 120 | 165 | 317
